Source: ChEMBL document CHEMBL1201862, “PubChem BioAssay data set” (2004)
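Results reflect a 48-hour exposure of cells in 96-well plates to compound at five concentrations. GI50: concentration for 50% inhibition of growth.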 The source made the active and inactive calls. Rule as the data show it: active = GI50 up to about 1.1 µM and inactive = higher.

Key:
Experiment in all cases: NCI tumour cell line growth inhibition, 48 h
[1] = system: BT-549
[2] = system: KM-20L2
[3] = system: NCI-H460
[4] = system: HOP-18
[5] = system: OVCAR-8
[6] = system: SW-620
[7] = system: CAKI-1
[8] = system: LOX IMVI
[9] = system: M14
[10] = system: RXF 631
[11] = system: SK-OV-3
[12] = system: HOP-92
[13] = system: Malme-3M
[14] = system: K562
[15] = system: OVCAR-5
[16] = system: HCC 2998
[17] = system: OVCAR-4
[18] = system: SF-295
[19] = system: SNB-78
[20] = system: UACC-62
[21] = system: M19-MEL
[22] = system: LXFL 529
[23] = system: EKVX
[24] = system: CCRF-CEM
[25] = system: A549
[26] = system: HL-60
[27] = system: MCF7
[28] = system: HOP-62
[29] = system: HT-29
[30] = system: SNB-75
[31] = system: 786-0
[32] = system: Hs-578T
[33] = system: COLO 205
[34] = system: KM12
[35] = system: MDA-N
[36] = system: IGROV-1
[37] = system: RPMI-8226
[38] = system: T47D
[39] = system: SK-MEL-5
[40] = system: A498
[41] = system: NCI-H226
[42] = system: NCI-H522
[43] = system: NCI-H23
[44] = system: SF-268
[45] = system: RXF 393
[46] = system: SK-MEL-2
[47] = system: UACC-257
[48] = system: SK-MEL-28
[49] = system: DLD-1
[50] = system: UO-31
[51] = system: NCI/ADR-RES
[52] = system: PC-3
[53] = system: DMS-114
[54] = system: SN12C
[55] = system: HCT-116
[56] = system: MDA-MB-231
[57] = system: U-251
[58] = system: SF-539
[59] = system: SR
[60] = system: ACHN
[61] = system: MDA-MB-435
[62] = system: MOLT-4
[63] = system: HCT-15
[64] = system: SNB-19
[65] = system: TK-10
[66] = system: XF498
[67] = system: DU-145
[68] = system: OVCAR-3
[69] = system: DMS-273

With `CCCCCCCC/C=C1\CCC(CN2CCOCC2)C1=O` (stereo not given) as the compound, how does the GI50 [1] read?
Its GI50 is 10.8 µM (inactive).

What about the GI50 [2] of the same compound?
The GI50 was 16.3 µM (inactive).

What about the GI50 [3] of the same compound?
The GI50 was 16.5 µM (inactive).

What about the GI50 [4] of the same compound?
The GI50 was 13.1 µM (inactive).

What about the GI50 [5] of the same compound?
The GI50 was 3.83 µM (inactive).

What about the GI50 [6] of the same compound?
The GI50 was 2.7 µM (inactive).

And the GI50 [7]?
The GI50 was 8.87 µM (inactive).

And the GI50 [8]?
The GI50 was 3.43 µM (inactive).

What about the GI50 [9] of the same compound?
Its GI50 is 5.37 µM (inactive).

What about the GI50 [10] of the same compound?
The GI50 was 8.95 µM (inactive).

What about the GI50 [11] of the same compound?
The GI50 was 19.9 µM (inactive).

What about the GI50 [12] of the same compound?
Its GI50 is 16.6 µM (inactive).

And the GI50 [13]?
The GI50 was 10.5 µM (inactive).

And the GI50 [14]?
The GI50 was 2.74 µM (inactive).

And the GI50 [15]?
Its GI50 is 20.4 µM (inactive).

What about the GI50 [16] of the same compound?
Its GI50 is 11.5 µM (inactive).

What about the GI50 [17] of the same compound?
The GI50 was 13.3 µM (inactive).

What about the GI50 [18] of the same compound?
Its GI50 is 14.7 µM (inactive).

And the GI50 [19]?
Its GI50 is 10.5 µM (inactive).

And the GI50 [20]?
Its GI50 is 5.35 µM (inactive).

And the GI50 [21]?
The GI50 was 8.65 µM (inactive).

What about the GI50 [22] of the same compound?
Its GI50 is 4.54 µM (inactive).

And the GI50 [23]?
The GI50 was 17.7 µM (inactive).

What about the GI50 [24] of the same compound?
The GI50 was 2.79 µM (inactive).

What about the GI50 [25] of the same compound?
The GI50 was 15 µM (inactive).

What about the GI50 [26] of the same compound?
Its GI50 is 3.11 µM (inactive).

And the GI50 [27]?
Its GI50 is 1.94 µM (inactive).

And the GI50 [28]?
Its GI50 is 15.1 µM (inactive).

And the GI50 [29]?
The GI50 was 6.98 µM (inactive).

What about the GI50 [30] of the same compound?
The GI50 was 2.61 µM (inactive).

And the GI50 [31]?
Its GI50 is 1.68 µM (inactive).

And the GI50 [32]?
The GI50 was 4.36 µM (inactive).

What about the GI50 [33] of the same compound?
Its GI50 is 5.77 µM (inactive).

And the GI50 [34]?
Its GI50 is 3.41 µM (inactive).

What about the GI50 [35] of the same compound?
The GI50 was 9.55 µM (inactive).

And the GI50 [36]?
Its GI50 is 7.35 µM (inactive).

And the GI50 [37]?
Its GI50 is 0.551 µM (active).

And the GI50 [38]?
The GI50 was 1.85 µM (inactive).

And the GI50 [39]?
The GI50 was 10.1 µM (inactive).

And the GI50 [40]?
The GI50 was 15.8 µM (inactive).

What about the GI50 [41] of the same compound?
Its GI50 is 17.4 µM (inactive).

What about the GI50 [42] of the same compound?
The GI50 was 2.69 µM (inactive).

And the GI50 [43]?
Its GI50 is 10.2 µM (inactive).

And the GI50 [44]?
Its GI50 is 9.35 µM (inactive).

What about the GI50 [45] of the same compound?
The GI50 was 12.5 µM (inactive).

And the GI50 [46]?
The GI50 was 14.8 µM (inactive).

What about the GI50 [47] of the same compound?
The GI50 was 8.67 µM (inactive).

What about the GI50 [48] of the same compound?
Its GI50 is 9.35 µM (inactive).

And the GI50 [49]?
Its GI50 is 2.8 µM (inactive).

What about the GI50 [50] of the same compound?
The GI50 was 8.36 µM (inactive).

And the GI50 [51]?
Its GI50 is 3.79 µM (inactive).

What about the GI50 [52] of the same compound?
The GI50 was 11.2 µM (inactive).

And the GI50 [53]?
Its GI50 is 6.41 µM (inactive).

And the GI50 [54]?
The GI50 was 5.7 µM (inactive).

And the GI50 [55]?
The GI50 was 3.53 µM (inactive).

What about the GI50 [56] of the same compound?
The GI50 was 2.23 µM (inactive).

What about the GI50 [57] of the same compound?
The GI50 was 14.8 µM (inactive).

What about the GI50 [58] of the same compound?
Its GI50 is 7.74 µM (inactive).

And the GI50 [59]?
Its GI50 is 2.13 µM (inactive).

What about the GI50 [60] of the same compound?
Its GI50 is 16.4 µM (inactive).

What about the GI50 [61] of the same compound?
Its GI50 is 4.81 µM (inactive).

And the GI50 [62]?
The GI50 was 2.13 µM (inactive).

And the GI50 [63]?
Its GI50 is 3.09 µM.

What about the GI50 [64] of the same compound?
The GI50 was 11.2 µM (inactive).

And the GI50 [65]?
The GI50 was 2.77 µM (inactive).

And the GI50 [66]?
The GI50 was 14.2 µM (inactive).

And the GI50 [67]?
Its GI50 is 5.3 µM (inactive).

What about the GI50 [68] of the same compound?
Its GI50 is 7.5 µM (inactive).

Which results are given for `Cl[Si]1(Cl)Oc2ccccc2O[Si](Cl)(Cl)Oc2ccccc2O1`?
GI50 [2]: 27.1 µM (inactive); GI50 [3]: 6.9 µM (inactive); GI50 [5]: 30.5 µM (inactive); GI50 [6]: 15 µM (inactive); GI50 [7]: 28.4 µM (inactive); GI50 [8]: 9.14 µM (inactive); GI50 [9]: 15.5 µM (inactive); GI50 [10]: 7.78 µM (inactive); GI50 [11]: 54.3 µM (inactive); GI50 [69]: 7.38 µM (inactive); GI50 [12]: 17.7 µM (inactive); GI50 [13]: 18.7 µM (inactive); GI50 [14]: 15.3 µM (inactive); GI50 [15]: 27.7 µM (inactive); GI50 [16]: 20.7 µM (inactive); GI50 [17]: 11.8 µM (inactive); GI50 [18]: 31.3 µM (inactive); GI50 [20]: 5.08 µM (inactive); GI50 [21]: 12 µM (inactive); GI50 [23]: 31 µM (inactive); GI50 [24]: 1.45 µM (inactive); GI50 [25]: 14.3 µM (inactive); GI50 [26]: 1.25 µM (inactive); GI50 [28]: 26.2 µM (inactive); GI50 [29]: 17 µM (inactive); GI50 [30]: 19.9 µM (inactive); GI50 [31]: 8.45 µM (inactive); GI50 [33]: 13.8 µM (inactive); GI50 [34]: 34.3 µM (inactive); GI50 [36]: 28.6 µM (inactive); GI50 [37]: 9.18 µM (inactive); GI50 [39]: 12.4 µM (inactive); GI50 [40]: 36.2 µM (inactive); GI50 [41]: 38.5 µM (inactive); GI50 [42]: 1.53 µM (inactive); GI50 [43]: 14.8 µM (inactive); GI50 [44]: 15 µM (inactive); GI50 [46]: 20.5 µM (inactive); GI50 [48]: 33.3 µM (inactive); GI50 [49]: 34 µM (inactive); GI50 [53]: 1.88 µM (inactive); GI50 [54]: 6.7 µM (inactive); GI50 [55]: 33.2 µM (inactive); GI50 [57]: 28.1 µM (inactive); GI50 [58]: 20.3 µM (inactive); GI50 [60]: 15.8 µM (inactive); GI50 [62]: 3.25 µM (inactive); GI50 [63]: 21 µM; GI50 [64]: 17.4 µM (inactive); GI50 [65]: 46.1 µM (inactive); GI50 [66]: 15.2 µM (inactive); GI50 [68]: 21.7 µM (inactive)
